Assay results: publication PMC7316994, “In Vitro Pharmacological Profile of a New Small Molecule Bradykinin B2 Receptor Antagonist” (Frontiers in Pharmacology, 2020)
Where two headings read alike, the source gives them in different places.

What was measured:
Prostanoid EP2 = target: T1, Prostanoid EP2 (Homo sapiens, UniProt P43116); test: radioligand binding (Table S2); conditions: [3H] Prostaglandin E2, Human recombinant HEK-293 cells
T1 construct: host or cells: HEK-293 cells

[1] = target: T2, Corticotropin-releasing factor CRF1 (Homo sapiens, UniProt P34998); test: functional assay, cAMP HTRF, CHO cells (Table S2); format: cell-based
T2 construct: expressed in transfected cells; host or cells: CHO cells
T2 sequence (P34998 24-415): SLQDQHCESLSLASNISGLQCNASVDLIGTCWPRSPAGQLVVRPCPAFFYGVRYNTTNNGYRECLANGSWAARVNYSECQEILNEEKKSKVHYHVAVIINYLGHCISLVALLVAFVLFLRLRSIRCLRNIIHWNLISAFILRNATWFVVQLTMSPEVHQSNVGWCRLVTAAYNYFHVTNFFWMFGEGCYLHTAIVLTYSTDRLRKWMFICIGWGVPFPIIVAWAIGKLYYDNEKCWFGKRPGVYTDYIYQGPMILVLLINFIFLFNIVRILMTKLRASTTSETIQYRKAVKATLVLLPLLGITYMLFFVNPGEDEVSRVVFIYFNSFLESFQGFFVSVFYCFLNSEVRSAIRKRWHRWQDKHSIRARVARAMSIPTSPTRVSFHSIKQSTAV

[2] = target: T3, Cysteinyl leukotriene receptor CysLT1 (Homo sapiens, UniProt Q9Y271); test: radioligand binding (Table S2); conditions: [3H] LTD4, Human recombinant CHO cells
T3 construct: host or cells: CHO cells

[3] = system: Potassium channel (Ca activated) SKCa channel; test: radioligand binding (Table S2); conditions: [125I] Apamin, Rat cerebral cortex
Angiotensine AT2 = Angiotensine AT2 (Homo sapiens, UniProt P50052); test: radioligand binding (Table S2); conditions: read-out: % Inhibition @ 10 µM
Adrenergic α2A = Adrenergic α2A (Homo sapiens, UniProt P08913); test: radioligand binding (Table S2); conditions: read-out: % Inhibition @ 10 µM
TP (TXA2/PGH2) = target: T4, TP (TXA2/PGH2) (Homo sapiens, UniProt P21731); test: functional assay, intracellular [Ca2+], HEK-293 cells (Table S2); format: cell-based; conditions: for inhibition at 10 µM: HEK293, read-out: % inhibition of reference agonist response @ 10 µM (antagonist effect), 10 µM, U 44069 (10 nM)
T4 construct: expressed in transfected cells; host or cells: HEK-293 cells
T4 sequence (P21731 1-343): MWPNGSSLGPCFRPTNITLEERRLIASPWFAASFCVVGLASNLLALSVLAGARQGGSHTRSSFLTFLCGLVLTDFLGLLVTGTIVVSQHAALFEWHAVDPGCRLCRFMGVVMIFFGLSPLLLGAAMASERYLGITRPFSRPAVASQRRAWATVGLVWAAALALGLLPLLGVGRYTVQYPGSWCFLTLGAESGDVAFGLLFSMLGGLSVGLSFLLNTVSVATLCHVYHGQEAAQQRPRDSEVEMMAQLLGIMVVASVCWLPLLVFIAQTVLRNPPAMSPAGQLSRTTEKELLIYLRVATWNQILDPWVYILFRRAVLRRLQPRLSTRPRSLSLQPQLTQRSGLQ

Somatostatin sst5 = Somatostatin sst5 (Homo sapiens, UniProt P35346); test: radioligand binding (Table S2); conditions: [125I] Tyr11-Somatostatin 14, Human recombinant Chem-1 cells
Dopamine D1 = target: T5, Dopamine D1 (Homo sapiens, UniProt P21728); test: radioligand binding (Table S2); conditions: [3H] SCH 23390, Human recombinant CHO cells
T5 construct: host or cells: CHO cells

[4] = target: T6, myc-tagged human B2 receptor (Homo sapiens, UniProt P30411); test: antibody internalization assay, HEK 293a cells; format: cell-based; conditions: BK 100 nM; antagonist 1 nM to 1 μM, 15 min before BK
T6 construct: expressed in transfected cells
Experimental: B2 receptor-mediated transport of immune complexes constructed at the cell surface was previously reported ([Bawolak et al., 2011]). Intact HEK 293a cells stably expressing the N-terminally myc-tagged B2 receptor construction (human sequence, [Charest-Morin et al., 2015]) were treated with the monoclonal anti-myc antibody (clone 4A6) conjugated with AlexaFluor-488 (Millipore, dilution 1:500) added to the culture medium. Cells were further incubated at 37°C. Without rinsing, a selected antagonist or their DMSO vehicle was added 5 min later, and BK (100 nM) or its saline vehicle 15 min later. After an additional 30 min incubation period at 37°C, cells were rinsed 3 times with Hank's balanced salt solution (Multicell Wisent, St. Bruno, Canada) and photographed in transmission and epifluorescence using an Olympus BX51 microscope coupled to a CoolSnap HQ digital camera (filters for AlexaFluor 488: excitation 460–500 nm, emission 510–560 nm).

[5] = target: T7, Growth hormone secretagogue (GHS, ghrelin) (Homo sapiens, UniProt Q92847); test: radioligand binding (Table S2); conditions: [125I] Ghrelin (human), Human recombinant CHO-K1 cells
T7 construct: host or cells: CHO-K1 cells

Serotonin 5-HT1A = target: T8, Serotonin 5-HT1A (Homo sapiens, UniProt P08908); test: radioligand binding (Table S2); conditions: [3H] 8-OH-DPAT, Human recombinant HEK-293 cells
T8 construct: host or cells: HEK-293 cells

B2 receptor = target: T9, B2 receptor (Homo sapiens, UniProt P30411); test: [^3H]BK competition binding assay, CHO cell membranes; set-up: host or cells: CHO cells; conditions: competition with 0.3 nM [^3H]BK
T9 sequence (P30411 1-391): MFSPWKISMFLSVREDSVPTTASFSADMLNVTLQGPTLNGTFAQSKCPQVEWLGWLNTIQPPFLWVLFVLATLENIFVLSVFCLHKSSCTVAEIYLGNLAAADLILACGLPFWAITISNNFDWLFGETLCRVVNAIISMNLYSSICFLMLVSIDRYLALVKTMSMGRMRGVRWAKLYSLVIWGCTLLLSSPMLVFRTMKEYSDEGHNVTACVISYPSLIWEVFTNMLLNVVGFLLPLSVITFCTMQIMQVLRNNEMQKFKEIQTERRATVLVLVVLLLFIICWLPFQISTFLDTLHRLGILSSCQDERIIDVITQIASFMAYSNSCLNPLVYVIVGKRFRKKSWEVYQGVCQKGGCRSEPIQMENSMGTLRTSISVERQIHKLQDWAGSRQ

Chemokine CXCR4 = Chemokine CXCR4 (Homo sapiens, UniProt P61073); test: radioligand binding (Table S2); conditions: [125I] SDF-1α, Human recombinant Chem-1 cells
Prostanoid EP4 = target: T10, Prostanoid EP4 (Homo sapiens, UniProt P35408); test: radioligand binding (Table S2); conditions: [3H] Prostaglandin E2, Human recombinant Chem-1 cells
T10 construct: host or cells: Chem-1 cells
T10 sequence (P35408 whole entry): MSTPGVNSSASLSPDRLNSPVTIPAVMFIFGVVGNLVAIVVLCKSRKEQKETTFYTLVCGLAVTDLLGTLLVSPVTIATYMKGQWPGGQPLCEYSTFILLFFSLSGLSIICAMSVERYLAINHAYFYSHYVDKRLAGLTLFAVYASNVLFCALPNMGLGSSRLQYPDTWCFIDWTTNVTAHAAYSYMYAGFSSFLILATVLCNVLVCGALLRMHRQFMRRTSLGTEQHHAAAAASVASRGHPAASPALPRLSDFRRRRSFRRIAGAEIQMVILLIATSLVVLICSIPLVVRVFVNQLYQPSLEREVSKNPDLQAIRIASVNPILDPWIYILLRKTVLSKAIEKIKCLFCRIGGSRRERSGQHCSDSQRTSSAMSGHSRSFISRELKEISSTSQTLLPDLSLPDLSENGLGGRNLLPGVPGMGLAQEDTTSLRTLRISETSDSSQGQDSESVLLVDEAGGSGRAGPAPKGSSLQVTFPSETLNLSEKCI

Sequence of Adrenergic α2A (P08913 whole entry): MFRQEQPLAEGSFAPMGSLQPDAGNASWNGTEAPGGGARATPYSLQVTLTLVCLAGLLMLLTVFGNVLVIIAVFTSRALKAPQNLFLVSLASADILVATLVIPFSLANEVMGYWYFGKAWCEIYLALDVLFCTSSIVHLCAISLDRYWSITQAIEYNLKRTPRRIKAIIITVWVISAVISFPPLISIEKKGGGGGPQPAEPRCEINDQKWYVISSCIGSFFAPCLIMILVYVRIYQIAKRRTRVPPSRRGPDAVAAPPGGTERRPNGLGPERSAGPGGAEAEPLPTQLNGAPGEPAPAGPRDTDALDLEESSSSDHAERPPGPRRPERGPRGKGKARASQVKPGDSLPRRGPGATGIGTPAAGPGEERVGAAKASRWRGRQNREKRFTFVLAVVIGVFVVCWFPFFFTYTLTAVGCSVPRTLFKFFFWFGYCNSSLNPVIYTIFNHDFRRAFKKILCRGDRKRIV
Sequence of Somatostatin sst5 (P35346 whole entry): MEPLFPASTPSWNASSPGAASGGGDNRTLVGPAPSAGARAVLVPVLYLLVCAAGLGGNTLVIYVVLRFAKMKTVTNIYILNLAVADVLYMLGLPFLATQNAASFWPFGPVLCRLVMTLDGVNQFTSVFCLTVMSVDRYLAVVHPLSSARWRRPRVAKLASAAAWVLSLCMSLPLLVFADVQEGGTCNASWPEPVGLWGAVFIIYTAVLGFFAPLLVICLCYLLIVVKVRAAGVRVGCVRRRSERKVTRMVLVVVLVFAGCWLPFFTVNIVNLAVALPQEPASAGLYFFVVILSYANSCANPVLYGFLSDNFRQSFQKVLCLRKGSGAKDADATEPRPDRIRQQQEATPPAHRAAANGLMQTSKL
Sequence of Chemokine CXCR4 (P61073 whole entry): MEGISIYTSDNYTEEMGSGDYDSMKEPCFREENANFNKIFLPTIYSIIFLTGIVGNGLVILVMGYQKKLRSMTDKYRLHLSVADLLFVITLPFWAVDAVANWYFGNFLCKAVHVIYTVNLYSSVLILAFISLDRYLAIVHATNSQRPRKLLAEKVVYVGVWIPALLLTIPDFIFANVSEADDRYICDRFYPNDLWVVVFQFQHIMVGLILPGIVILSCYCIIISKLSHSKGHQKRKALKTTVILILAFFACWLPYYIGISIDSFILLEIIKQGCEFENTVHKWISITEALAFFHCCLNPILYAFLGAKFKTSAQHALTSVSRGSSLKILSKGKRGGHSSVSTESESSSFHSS
T7 sequence (Q92847 whole entry): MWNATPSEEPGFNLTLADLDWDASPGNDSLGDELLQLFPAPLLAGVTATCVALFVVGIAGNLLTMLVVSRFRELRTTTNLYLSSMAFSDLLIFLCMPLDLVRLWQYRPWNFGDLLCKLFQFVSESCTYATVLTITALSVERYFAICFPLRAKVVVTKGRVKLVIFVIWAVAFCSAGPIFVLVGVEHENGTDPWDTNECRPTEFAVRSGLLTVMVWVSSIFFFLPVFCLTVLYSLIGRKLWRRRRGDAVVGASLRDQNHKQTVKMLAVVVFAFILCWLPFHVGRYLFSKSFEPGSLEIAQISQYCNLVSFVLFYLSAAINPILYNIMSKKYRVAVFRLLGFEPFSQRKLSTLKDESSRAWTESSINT
T1 sequence (P43116 whole entry): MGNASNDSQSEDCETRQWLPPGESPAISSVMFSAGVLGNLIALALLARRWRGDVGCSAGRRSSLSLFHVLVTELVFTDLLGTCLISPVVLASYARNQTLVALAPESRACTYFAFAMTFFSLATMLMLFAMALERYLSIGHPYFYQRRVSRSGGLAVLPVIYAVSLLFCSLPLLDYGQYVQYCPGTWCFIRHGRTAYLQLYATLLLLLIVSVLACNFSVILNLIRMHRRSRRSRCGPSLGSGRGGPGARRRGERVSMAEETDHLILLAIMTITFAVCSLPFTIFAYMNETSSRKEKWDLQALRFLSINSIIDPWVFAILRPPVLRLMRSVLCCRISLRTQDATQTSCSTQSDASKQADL
T8 sequence (P08908 whole entry): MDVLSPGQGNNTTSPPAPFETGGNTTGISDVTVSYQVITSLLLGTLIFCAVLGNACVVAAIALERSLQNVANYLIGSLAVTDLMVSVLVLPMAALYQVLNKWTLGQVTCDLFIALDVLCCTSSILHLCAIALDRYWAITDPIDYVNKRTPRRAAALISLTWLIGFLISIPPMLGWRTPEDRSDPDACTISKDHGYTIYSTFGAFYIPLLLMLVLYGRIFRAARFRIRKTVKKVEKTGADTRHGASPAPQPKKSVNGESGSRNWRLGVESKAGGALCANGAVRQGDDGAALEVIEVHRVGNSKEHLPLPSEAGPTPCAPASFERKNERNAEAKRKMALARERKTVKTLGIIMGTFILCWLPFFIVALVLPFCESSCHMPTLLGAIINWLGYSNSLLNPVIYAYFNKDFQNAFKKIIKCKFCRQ
Sequence of Angiotensine AT2 (P50052 whole entry): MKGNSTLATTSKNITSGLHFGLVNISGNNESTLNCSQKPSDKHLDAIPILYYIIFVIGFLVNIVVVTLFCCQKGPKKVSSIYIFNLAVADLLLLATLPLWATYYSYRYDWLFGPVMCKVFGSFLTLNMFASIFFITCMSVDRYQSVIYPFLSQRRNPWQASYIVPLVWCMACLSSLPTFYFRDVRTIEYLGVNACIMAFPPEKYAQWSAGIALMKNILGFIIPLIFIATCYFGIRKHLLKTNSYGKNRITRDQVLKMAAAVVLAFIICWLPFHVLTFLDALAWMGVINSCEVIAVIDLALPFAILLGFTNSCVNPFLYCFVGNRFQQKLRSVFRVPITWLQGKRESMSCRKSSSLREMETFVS
T3 sequence (Q9Y271 whole entry): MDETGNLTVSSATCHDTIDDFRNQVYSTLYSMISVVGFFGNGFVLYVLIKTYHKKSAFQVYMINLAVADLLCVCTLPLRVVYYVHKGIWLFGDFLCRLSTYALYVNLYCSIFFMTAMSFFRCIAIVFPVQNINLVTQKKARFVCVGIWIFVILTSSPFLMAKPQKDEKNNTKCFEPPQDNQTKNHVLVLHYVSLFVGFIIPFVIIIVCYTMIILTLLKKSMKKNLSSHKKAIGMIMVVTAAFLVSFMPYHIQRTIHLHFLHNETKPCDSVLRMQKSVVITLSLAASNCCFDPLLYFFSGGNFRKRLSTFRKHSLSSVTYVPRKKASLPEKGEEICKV
T5 sequence (P21728 whole entry): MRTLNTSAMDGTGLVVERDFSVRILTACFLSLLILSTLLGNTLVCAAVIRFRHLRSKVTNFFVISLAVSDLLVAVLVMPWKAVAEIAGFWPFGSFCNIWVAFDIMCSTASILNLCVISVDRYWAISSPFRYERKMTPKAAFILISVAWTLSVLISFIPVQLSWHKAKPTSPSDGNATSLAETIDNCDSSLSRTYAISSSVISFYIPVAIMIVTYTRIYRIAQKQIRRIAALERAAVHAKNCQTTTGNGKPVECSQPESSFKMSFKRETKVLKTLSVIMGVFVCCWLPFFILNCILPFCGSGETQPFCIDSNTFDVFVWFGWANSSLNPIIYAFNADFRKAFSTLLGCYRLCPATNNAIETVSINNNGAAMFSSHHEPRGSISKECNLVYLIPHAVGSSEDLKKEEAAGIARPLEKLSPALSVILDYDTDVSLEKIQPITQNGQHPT

Cc1cc(-c2ncnn2C)c2cccc(OCc3c(Cl)cc(F)cc3[C@H](C)NC(=O)COC(F)F)c2n1 [Compound 3, (S)-N-(1-(3-chloro-5-fluoro-2-((2-methyl-4-(1-methyl-1H-1,2,4-triazol-5-yl)quinolin-8-yloxy)methyl)phenyl)ethyl)-2-(difluoromethoxy)acetamide]
inhibition at 10 µM (Prostanoid EP2): 12%
% of reference agonist response @ 10 µM (agonist effect) ([1]; 10 µM, reference ovine CRF (1 µM)): -2.7%
inhibition at 10 µM ([1]; CHO, read-out: % inhibition of reference agonist response @ 10 µM (antagonist effect), 10 µM, Ovine CRF (10 nM)): 55.7%
IC50 ([1]; Ovine CRF (10 nM), read-out: IC50 (µM), functional antagonism): 10 µM
Kb ([1]; Ovine CRF (10 nM), read-out: Kb (µM), functional antagonism): 3.6 µM
inhibition at 10 µM [2]: -2.2%
% Inhibition @ 10 µM [3]: 6.3%
inhibition at 10 µM (Angiotensine AT2): 3.5%
inhibition at 10 µM (Adrenergic α2A): -1.7%
IC50 (TP (TXA2/PGH2)): 3600 nM
Kb (TP (TXA2/PGH2)): 510 nM
% of reference agonist response @ 10 µM (agonist effect) (TP (TXA2/PGH2); 10 µM, reference U 44069 (0.3 µM)): -2.8%
inhibition at 10 µM (TP (TXA2/PGH2); first entry of Table S2, single concentration): 62.3%
inhibition at 10 µM (TP (TXA2/PGH2); second entry of Table S2, with IC50 and KB): 55.1%
inhibition at 10 µM (Somatostatin sst5): 2%
inhibition at 10 µM (Dopamine D1): 6.9%
concentration with clear efficacy in inhibiting BK-induced endocytosis [4]: ≥ 100 nM
inhibition at 10 µM [5]: 6%
inhibition at 10 µM (Serotonin 5-HT1A): -4%
IC50 (B2 receptor; arithmetic mean, read-out: IC50 (nM) Mean): 0.97 nM
Ki (B2 receptor; arithmetic mean, read-out: Ki (nM) Mean): 0.5 nM
IC50 (B2 receptor; geometric mean, read-out: IC50 (nM) Geometric mean): 0.97 nM
Ki (B2 receptor; geometric mean, read-out: Ki (nM) Geometric mean): 0.5 nM
inhibition at 10 µM (Chemokine CXCR4): 10%
inhibition at 10 µM (Prostanoid EP4): 3%
